Results from patent US20150315218A1, “SALTS OF PRODRUGS OF PIPERAZINE AND SUBSTITUTED PIPERIDINE ANTIVIRAL AGENTS” (Bristol-Myers Squibb Company, priority 2004, published 2015).
Structures can show the parent of a compound that is named as a salt. Each block holds one compound with its values, some of them ahead of it.

Columns and labels:
[1] = IV and PO pharmacokinetic studies of prodrug salts (Iab, Ibb, Icb) in the dog, with historical parent data; type: in vivo, beagle dogs; details: for concentration at 24 hr: read-out: C-24 hr; for Cmax: read-out: Cmax
Description: The IV and PO studies of Iab were conducted in a crossover fashion in three male beagle dogs (11±1.1 kg, Marshall Farms USA Inc., North Rose, N.Y.). There was a two-week washout period between the IV and PO studies.
(§1) In the IV study, Iab was infused via the cephalic vein at 1.2 mg/kg (free acid, or 0.95 mg/kg of IVa equivalent) over 5 min at a constant rate of 0.1 mL/kg/min. The concentration of the dosing solution was 2.4 mg/mL, and the dosing volume was 0.5 mL/kg. Serial blood samples were collected from the femoral artery before dosing and at 5, 10, 15, 30, 45 min, 1, 2, 4, 6, 8 and 24 hr after dosing.
(§2) In the PO study, the dogs were fasted overnight before dosing. Iab was administered by oral gavage at 6.6 mg/kg (free acid, or 5.2 mg/kg of IVa equivalent). The concentration of the dosing solution was 13.2 mg/mL, and the dosing volume was 0.5 mL/kg. Serial blood samples were collected before dosing and at 15, 30, 45 min, 1, 2, 4, 6, 8 and 24 hr after dosing.
The IV and PO studies of Ibb were conducted in male beagle dogs (10±0.78 kg, Marshall Farms USA Inc., North Rose, N.Y.). Three dogs were used in each study. Of the three dogs, two same dogs were used for both IV and PO studies. There was a two-week washout period between the IV and PO studies.
The concentration of the dosing solution was 2.6 mg/mL, and the dosing volume was 0.5 mL/kg. Serial blood samples were collected from the femoral artery before dosing and at 5, 10, 15, 30, 45 min, 1, 2, 4, 6, 8 and 24 hr after dosing.
In the PO study, the dogs were fasted overnight before dosing. […] The concentration of the dosing solution was 7.0 mg/mL, and the dosing volume was 1 mL/kg. Serial blood samples were collected before dosing and at 15, 30, 45 min, 1, 2, 4, 6, 8 and 24 hr after dosing.
The IV and PO studies of Icb were conducted in a crossover fashion in three male beagle dogs (12±2.8 kg, Marshall Farms USA Inc., North Rose, N.Y.). There was a two-week washout period between the IV and PO studies.
as §1, with “Icb” for “Iab”, “1.3” for “1.2”, “1.0” for “0.95”, “IVe” for “IVa”, “2.6” for “2.4”
In the PO study, the dogs were fasted overnight before dosing. […] The concentration of the dosing solution was 12 mg/mL, and the dosing volume was 0.5 mL/kg. Serial blood samples were collected before dosing and at 15, 30, 45 min, 1, 2, 4, 6, 8 and 24 hr after dosing.

[2] = IV and PO pharmacokinetic studies of prodrug salts (Iab, Ibb, Icb) in the monkey, with historical parent data; type: in vivo, cynomolgus monkeys; details: for concentration at 24 hr: read-out: C-24 hr; for Cmax: read-out: Cmax; for half-life: after IV prodrug, read-out: t1/2 (hr), IV (converted); for clearance: read-out: CLtot (mL/min/kg), IV
Description: The IV and PO studies of Iab were conducted in a crossover fashion in three male cynomolgus monkeys (11±1.2 kg, Charles River Biomedical Research Foundation, Houston, Tex.). There was a two-week washout period between the IV and PO studies.
as §1, with “femoral” for “cephalic”, “1.3” for “1.2”, “1.1” for “0.95”, “2.6” for “2.4”
as §2, with “monkeys” for “dogs”, “7.1” for “6.6”, “5.6” for “5.2”, “14.2” for “13.2”
The IV and PO studies of Ibb were conducted in a crossover fashion in three male cynomolgus monkeys (9.9±2.4 kg, Charles River Biomedical Research Foundation, Houston, Tex.). There was a two-week washout period between the IV and PO studies.
The concentration of the dosing solution was 2.7 mg/mL, and the dosing volume was 0.5 mL/kg. Serial blood samples were collected from the femoral artery before dosing and at 5, 10, 15, 30, 45 min, 1, 2, 4, 6, 8 and 24 hr after dosing.
In the PO study, the monkeys were fasted overnight before dosing. […] The concentration of the dosing solution was 5.8 mg/mL, and the dosing volume was 1 mL/kg. Serial blood samples were collected before dosing and at 15, 30, 45 min, 1, 2, 4, 6, 8 and 24 hr after dosing.
The IV and PO studies of Icb were conducted in a crossover fashion in three male cynomolgus monkeys (10±1.6 kg, Charles River Biomedical Research Foundation, Houston, Tex.). There was a two-week washout period between the IV and PO studies.
The concentration of the dosing solution was 2.8 mg/mL, and the dosing volume was 0.5 mL/kg. Serial blood samples were collected from the femoral artery before dosing and at 5, 10, 15, 30, 45 min, 1, 2, 4, 6, 8 and 24 hr after dosing.
In the PO study, the monkeys were fasted overnight before dosing. […] The concentration of the dosing solution was 9.8 mg/mL, and the dosing volume was 0.5 mL/kg. Serial blood samples were collected before dosing and at 15, 30, 45 min, 1, 2, 4, 6, 8 and 24 hr after dosing.

[3] = male, beagle, plasma, after IV prodrug, analyte = label, read-out: t1/2 (hr), IV (converted)
[4] = male, beagle, plasma, prodrug after IV administration, read-out: CLtot (mL/min/kg), IV
[5] = male, beagle, plasma, prodrug after IV administration, read-out: Vdss (L/kg), IV
[6] = male, cynomolgus monkey, plasma, monkey, analyte = label
[7] = male, cynomolgus monkey, plasma, monkey, prodrug after IV administration
[8] = male, cynomolgus monkey, plasma, monkey, prodrug after IV administration, read-out: Vdss (L/kg), IV
[9] = male, beagle, in vivo, iv, 1.28 mg/kg

bioavailability ([1]; beagle, plasma, historical parent, PO 5 mg/kg, read-out: Bioavailability (%)): 89%
Tmax ([1]; beagle, plasma, historical parent, PO 5 mg/kg, read-out: Tmax (hr), PO): 1.3 h
AUC ([1]; male, beagle, plasma, iv, 1.28 mg/kg, read-out: AUCtot): 9.8 ± 3.6 µM·h
bioavailability ([1]; male, beagle, plasma, oral prodrug, read-out: Bioavailability (%) of parent from prodrug): 104%
bioavailability ([1]; male, beagle, plasma, oral, 6.05 mg/kg, read-out: Bioavailability): 104%
concentration at 24 hr ([1]; male, beagle, plasma, oral, 6.05 mg/kg): 220 ± 160 nM
Tmax ([1]; male, beagle, plasma, parent after oral prodrug (~5 mg/kg parent equivalent), read-out: Tmax (hr), PO): 0.58 h
AUC ([1]; male, beagle, plasma, po, 6.05 mg/kg, read-out: AUCtot): 72 ± 27 µM·h
Cmax ([1]; male, beagle, plasma, po, 6.05 mg/kg): 16000 ± 3900 nM
Tmax ([1]; male, beagle, plasma, po, 6.05 mg/kg, read-out: Tmax): 0.58 ± 0.38 h
AUC ([1]; plasma, iv, 1 mg/kg, read-out: AUCtot): 14 ± 2.5 µM·h
MRT ([1]; plasma, iv, 1 mg/kg, read-out: MRT): 378 ± 114 min
Vd ([1]; plasma, iv, 1 mg/kg, read-out: Vdss): 0.93 ± 0.14 L/kg
concentration at 24 hr ([1]; plasma, oral, 5 mg/kg): 150 ± 27 nM
AUC ([1]; plasma, po, 5 mg/kg, read-out: AUCtot): 63 ± 2.4 µM·h
bioavailability ([1]; plasma, po, 5 mg/kg, read-out: Bioavailability): 89 ± 12%
Cmax ([1]; plasma, po, 5 mg/kg): 9600 ± 870 nM
Tmax ([1]; plasma, po, 5 mg/kg, read-out: Tmax): 1.3 ± 0.58 h
AUC ([2]; cynomolgus monkey, plasma, iv, 1 mg/kg, read-out: AUCtot): 5 ± 1 µM·h
MRT ([2]; cynomolgus monkey, plasma, iv, 1 mg/kg, read-out: MRT): 52.2 ± 5.1 min
Vd ([2]; cynomolgus monkey, plasma, iv, 1 mg/kg, read-out: Vdss): 0.4 ± 0.097 L/kg
concentration at 24 hr ([2]; cynomolgus monkey, plasma, oral, 5 mg/kg): 17 ± 11 nM
AUC ([2]; cynomolgus monkey, plasma, po, 5 mg/kg, read-out: AUCtot): 14 ± 4 µM·h
Cmax ([2]; cynomolgus monkey, plasma, po, 5 mg/kg): 4200 ± 2600 nM
bioavailability ([2]; cynomolgus monkey, plasma, monkey, historical parent, PO 5 mg/kg, read-out: Bioavailability (%)): 64%
Tmax ([2]; cynomolgus monkey, plasma, monkey, historical parent, PO 5 mg/kg, read-out: Tmax (hr), PO): 2.3 h
bioavailability ([2]; male, cynomolgus monkey, plasma, oral, 4.9 mg/kg, read-out: Bioavailability): 122%
concentration at 24 hr ([2]; male, cynomolgus monkey, plasma, oral, 4.9 mg/kg): 7 ± 2 nM
AUC ([2]; male, cynomolgus monkey, plasma, po, 4.9 mg/kg, read-out: AUCtot): 24 ± 4.6 µM·h
Cmax ([2]; male, cynomolgus monkey, plasma, po, 4.9 mg/kg): 9500 ± 1200 nM
Tmax ([2]; male, cynomolgus monkey, plasma, po, 4.9 mg/kg, read-out: Tmax): 0.92 ± 0.14 h
bioavailability ([2]; male, cynomolgus monkey, plasma, monkey, oral prodrug, read-out: Bioavailability (%) of parent from prodrug): 122%
Tmax ([2]; male, cynomolgus monkey, plasma, monkey, parent after oral prodrug (~4-6 mg/kg parent equivalent), read-out: Tmax (hr), PO): 0.92 h
Tmax ([2]; monkey, PO IVc 5 mg/kg, historical IVc): 2.3 ± 1.5 h
SMILES: COc1cnc(-n2cnc(C)n2)c2[nH]cc(C(=O)C(=O)N3CCN(C(=O)c4ccccc4)CC3)c12 [IVc]

AUC ([1]; male, beagle, plasma, after IV prodrug (~1 mg/kg parent equivalent), analyte = label, read-out: AUCtot (μM · hr), IV): 0.56 ± 0.12 µM·h
half-life [1, 3]: 0.15 h
clearance [1, 4]: 70 mL/min/kg
Vd [1, 5]: 0.3 L/kg
concentration at 15 min ([2]; male, cynomolgus monkey, plasma, po, monkey, LLQ = 5 nM, read-out: prodrug detected in plasma after oral administration): 18 nM
AUC ([2]; male, cynomolgus monkey, plasma, monkey, after IV prodrug (~1.1 mg/kg parent equivalent), analyte = label, read-out: AUCtot (μM · hr), IV): 9.5 ± 0.38 µM·h
half-life [2, 6]: 1 h
clearance [2, 7]: 4.4 mL/min/kg
Vd [2, 8]: 0.048 L/kg
SMILES: COc1cnc(OC)c2c1c(C(=O)C(=O)N1CCN(C(=O)c3ccccc3)CC1)cn2COP(=O)(O)O [Iab, {3-[(4-benzoylpiperazin-1-yl)(oxo)acetyl]-4,7-dimethoxy-1H-pyrrolo[2,3-c]pyridin-1-yl}methyl dihydrogen phosphate, L-lysine salt (1:1)]

SMILES: O=C(C(=O)N1CCN(C(=O)c2ccccc2)CC1)c1cn(COP(=O)(O)O)c2c(-n3ccnn3)ncc(F)c12 [Ibb, [3-[(4-benzoylpiperazin-1-yl)(oxo)acetyl]-4-fluoro-7-(1H-1,2,3-triazol-1-yl)-1H-pyrrolo[2,3-c]pyridin-1-yl]methyl dihydrogen phosphate, L-lysine salt (1:1)]
T1/2 ([1]; IV Ibb […] free acid (1.0 of IVb eqv.), mean ± SD, n = 3): 49.8 ± 34.8 min
prodrug detected in plasma after oral administration ([1]; LLQ = 5 nM): 0.034 µM
half-life [1, 3]: 0.83 h
AUC ([1]; male, beagle, plasma, po, 7 mg/kg, read-out: AUCtot): 0.059 µM·h
Cmax ([1]; male, beagle, plasma, po, 7 mg/kg): 34 ± 18 nM
Tmax ([1]; male, beagle, plasma, po, 7 mg/kg, read-out: Tmax): 0.33 ± 0.14 h
clearance [1, 4]: 27 mL/min/kg
Vd [1, 5]: 0.35 L/kg
half-life [2, 6]: 0.1 h
clearance [2, 7]: 28 mL/min/kg
Vd [2, 8]: 0.15 L/kg
prodrug detected in plasma after oral administration ([2]; monkey, LLQ = 5 nM): not detected

AUC [1, 9]: 0.61 ± 0.2 µM·h
MRT [1, 9]: 8.4 ± 1.26 min
Vd [1, 9]: 0.5 ± 0.088 L/kg
clearance [1, 9]: 64 ± 18 mL/min/kg
half-life [1, 9]: 0.25 ± 0.1 h
T1/2 ([2]; male, cynomolgus monkey, in vivo, iv, […]): 5.34 ± 1.86 min
SMILES: COc1cnc(-n2cnc(C)n2)c2c1c(C(=O)C(=O)N1CCN(C(=O)c3ccccc3)CC1)cn2COP(=O)(O)O [Icb, [3-[(4-benzoylpiperazin-1-yl)(oxo)acetyl]-4-methoxy-7-(3-methyl-1H-1,2,4-triazol-1-yl)-1H-pyrrolo[2,3-c]pyridin-1-yl]methyl dihydrogen phosphate, 2-amino-2-(hydroxymethyl)propane-1,3-diol salt (1:1)]
